Data taken from paper PMC6394990, “Detailed characterization of the solution kinetics and thermodynamics of biotin, biocytin and HABA binding to avidin and streptavidin” (PLoS ONE, 2019).
“And” between values parts separate entries of the source, which are not always exact repeats. Equal entries are not always repeated.

Experiments:
avidin (AV) [1] = biological target: T1, avidin (AV) (Gallus gallus, UniProt P02701); test: Steady-state anisotropy (rss), AV complex; format: physicochemical; settings: for Steady State Anisotropy rss: AV complex (AB1), 20°C; for AV-increment (%): increase of rss against unbound; for rss, + AV: steady-state anisotropy
T1 construct: purchased Calbiochem (La Jolla, CA)
T1 sequence (P02701 25-152): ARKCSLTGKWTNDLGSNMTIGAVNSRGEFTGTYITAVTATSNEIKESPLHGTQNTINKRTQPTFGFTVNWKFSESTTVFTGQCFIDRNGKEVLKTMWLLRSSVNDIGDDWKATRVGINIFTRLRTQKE
Experimental: (§1) The lifetimes (τ), steady state anisotropies (rss), time-resolved anisotropies (rt) and quantum yields (QY) of the complexes (at 20 ± 0.1°C and pH 8) were collected with a dye-labeled B7 probe concentration of 20–40 nM and 1040–2080 nM of either protein (AV or SAV) to ensure that only one binding site in the tetramer was filled with a ligand (AB1 filling model).
(§2) The rss measurements were collected using the Giblin-Parkhurst modification of the Wampler-Desa method as described previously. The fluorescence signal was detected in a model A-1010 Alphascan fluorimeter (Photon Technologies, Inc., Birmingham, NJ) equipped with an R928 PMT (Hamamatsu, Bridgewater, NJ). The excitation was provided by an Ar^+ ion laser (Coherent Innova 70–4 Argon, Santa Clara, CA) at 488 nm and 5–10 mW of power incident on the sample. A photoelastic modulator (PEM-80; HINDS International, Inc., Portland, OR) was placed between the laser source and the sample compartment with a retardation level of 1.22π, and the PEM stress axis orientated 45° with respect to the E vector of the laser beam. Two signals were acquired with the PEM alternating between “on” and “off” positions for 10 seconds and the data fitted to a least squared straight line to minimize noise. A minimum of six of these independent measurements were averaged to acquire the rss values. The fluorimeter G factor was determined using a film polarizer and analyzer with an excitation at 488 nm provided by a xenon arc lamp (model A1010, Photon Technologies Inc, Princeton, NJ). The dissociation reactions of dye-labeled B7 and protein complexes were monitored by fluorescence changes and were also collected in the fluorimeter described above.

streptavidin (SAV) [2] = biological target: T2, streptavidin (SAV) (Streptomyces avidinii, UniProt P22629); test: Dissociation (displacement/replacement) of dye-labeled biotin complexes by unlabeled B7; format: binding; settings: for half-time of displacement: SAV-BcO AB1
T2 construct: purchased Sigma Aldrich (St. Louis, MO)
T2 sequence (P22629 25-183): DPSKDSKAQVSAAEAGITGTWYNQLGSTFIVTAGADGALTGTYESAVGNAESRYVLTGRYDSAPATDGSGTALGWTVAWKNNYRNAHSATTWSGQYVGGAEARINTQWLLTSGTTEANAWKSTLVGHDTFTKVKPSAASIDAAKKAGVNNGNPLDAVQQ
Experimental: Biotin dissociation was determined using labelled biotin (BcO and BFl) displaced by unlabeled biotin using minimally occupied and fully occupied binding sites. In the minimally occupied measurements, SAV is prepared with less than one site on average occupied by labelled biotin (AB1), using 800 nM SAV and 40 nM of BcO or BFl. For saturated SAV-labelled biotin (AB4) complexes, equimolar binding sites and labelled ligand were prepared, 40 nM SAV and 40 nM of BcO or BFl. The AB1 complexes were challenged in displacement experiments with several concentrations of unlabeled B7 (1500 nM, 1750 nM, 2000 nM and 2500 nM) at 20 ± 0.1°C. In AB1, SAV had 760 nM in open sites, therefore the total challenging B7 concentrations were 740 nM, 990 nM, 1240 nM and 1740 nM, respectively. […] The 40 nM AB4 complexes were challenged with unlabeled B7 concentrations of 400 nM (10X) and 1600 nM (40X) at 20 ± 0.1°C. The dissociation reactions of AV complexes were carried out with a preformed complex of 20 nM BFl or BcO and 260 nM AV for a filling model of AB1 and challenged with unlabeled B7 at 2,000 nM.
as §2
The dissociation reactions were followed by fluorescence changes, F¯(t) , in the fluorimeter and laser setup described above and tuned to 488 nm under discontinuous excitation to prevent photobleaching distortion. The signal was best fitted to the following dissociation model (Eq 10), in which the dye labeled complex dissociates into the labeled B7 probe (BFl or BcO) and the respective protein (AV or SAV).

streptavidin (SAV) [3] = biological target: T2, streptavidin (SAV); test: Quantum yields (QY), SAV complex; format: physicochemical; settings: for dQY-SAV: fractional change of QY, SAV complex against dye
Experimental: as §1
The QY values were obtained by using a reference fluorophore of known quantum yield and were calculated according to Parker and Rees, where the reference dye was fluorescein in 0.1N sodium hydroxide solution [46]. The emission fluorescence scans were collected from 480 nm to 700 nm with the excitation light set at 460 nm provided by the xenon arc lamp described above. These measurements were made on the AB1 complexes at high protein concentration.

avidin (AV) [4] = biological target: T1, avidin (AV); test: Time-resolved anisotropy, cone angle, AV complex; format: physicochemical; settings: for Cone Angle Ω: AV complex (AB1), 20°C; for W: complex with AV
Experimental: as §1
The lifetimes were collected in a FluoTime100 fluorescence spectrometer (PicoQuant, GmbH, Berlin, Germany) with the excitation light source provided by a picosecond pulsed diode laser (PicoQuant, GmbH, Berlin, Germany) at 470 nm and 20 MHz. The emission was collected at 520 nm through a non-fluorescing 520 nm interference filter (Oriel Corp., Stratford, CT) followed by a liquid filter of 1cm path length containing 24 mM acetate buffered dichromate at pH 4, between the sample and detector to eliminate traces of excitation light. The fluorescence decays were fit by a nonlinear least-squares minimization based on the Marquardt algorithm embedded in the Fluofit software (PicoQuant GmbH). Twenty-eight decays were collected per sample, the decays were grouped in four sets, consisting of seven sample decays and one Instrument Response Function, IRF, for deconvolution proposes. The decay sets were globally fitted to mono- or bi-exponential decay models that were discriminated using the statistical parameter χ^2. The rt data were acquired with the fluorimeter described above equipped with a polarizer and an analyzer to acquire the parallel VV(t) and perpendicular VH(t) decays. The PicoQuant G factor was calculated according to: G = ∫HV(t)dt/∫HH(t)dt, where HV(t) and HH(t) were the decays collected with the emission polarizer selecting vertical and horizontal E-vector passing orientations, respectively, and the excitation polarizer set at horizontally position.
The r¯t values were calculated according to Eq 11 where the pre-exponential “f” corresponds to the slow phase that derives from the lifetime of the global motion (τG) which was fitted within a range of expected correlation time for the complex size; consequently, facilitating resolution of the fast correlation lifetime (τp) and the corresponding pre-exponential (1-f). r¯(t)=(1−f)∙exp(−t/τp)+f∙exp(−t/τG) (11) The f parameter was constrained to the observed rss (Eq 12) where F^(t) (Eq 13) is normalized (α1 + α2 = 1) and derived from the observed fluorescence decays of the complex. rss=0.4∫r¯(t)∙F^(t)dt (12) Where F^(t)=α1exp(−t/τ1)+α2exp(−t/τ2)/α1τ1+α2τ2 (13)
In a simple model, the transition moment is assumed to wobble within a cone of semi-apical angle Ω [59], where the cone axis is normal to the surface of a sphere that corresponds to the macromolecule. The angle Ω is calculated from Eq 14.

streptavidin (SAV) [5] = biological target: T2, streptavidin (SAV); test: Intrinsic lifetime, dynamic quantum yield and fraction of non-statically quenched molecules, SAV complex; format: physicochemical; settings: for 1-S (4) = QY/F, fraction of non-statically quenched molecules / F (3) = Sat/t° / S / t° (2), intrinsic lifetime of the fluorescence dye: complex with SAV
[6] = SAV complex, mono-ionic fluorescein species

SMILES	Steady State Anisotropy rss (avidin (AV) [1])	AV-increment (%) (avidin (AV) [1])	rss, + AV (avidin (AV) [1])	QY (streptavidin (SAV) [3]; complex with SAV)	dQY-SAV (streptavidin (SAV) [3])	Cone Angle Ω (avidin (AV) [4]) [degrees]	W (avidin (AV) [4])	1-S (4) = QY/F, fraction of non-statically quenched molecules (streptavidin (SAV) [5])	F (3) = Sat/t° (streptavidin (SAV) [5])	S (streptavidin (SAV) [5])	t° (2), intrinsic lifetime of the fluorescence dye (streptavidin (SAV) [5])	further results
O=C(CCCC[C@@H]1SC[C@@H]2NC(=O)N[C@@H]21)NCCNC(=O)c1ccc(-c2c3ccc(=O)cc-3oc3cc(O)ccc23)c(C(=O)O)c1 [BFl, Biotin-4-fluorescein]	0.180 ± 0.003	757.1	0.18	0.11 and 0.11 ± 0.01	-0.7885	51 ± 2	51	0.14 and 0.14 ± 0.02	0.80 ± 0.02	0.86	4.6 ± 0.1	release (displacement) of the bound probe (streptavidin (SAV) [2]; SAV-BFl complex, AB1, 30°C, challenging B7 1400 nM): 5%; 488, correction, absR/abs (streptavidin (SAV) [3]; complex with SAV): 1.708; QY multiplied by the 488 correction absR/abs (streptavidin (SAV) [3]; complex with SAV): 0.1879; Natural Lifetime τ° (streptavidin (SAV) [5]; SAV complex, di-ionic fluorescein species): 4.5 ± 0.1; Fraction of Non-Statically Quenched Dye 1-S (streptavidin (SAV) [5]; [6]): 0.18 ± 0.02; Natural Lifetime τ° (streptavidin (SAV) [5]; [6]): 8.1 ± 0.1
NC(CCCCNC(=O)CCCC[C@@H]1SC[C@@H]2NC(=O)N[C@@H]21)C(=O)NCCCCCNC(=O)c1ccc(-c2c3cc(F)c(=O)cc-3oc3cc(O)c(F)cc23)c(C(=O)O)c1 (stereo partly drawn) [BcO, Oregon green 488 Biocytin]	0.187 ± 0.009	713.0	0.187	0.21 ± 0.01 and 0.21	-0.7692	50 ± 2	50	0.25 and 0.25 ± 0.02	0.83 ± 0.02	0.75	4.8 ± 0.1	half-time of displacement (streptavidin (SAV) [2]; 20°C, challenging B7 740 nM): 56.6 s; half-time of displacement (streptavidin (SAV) [2]; 20°C, challenging B7 1240 nM): 33.9 s; half-time of displacement (streptavidin (SAV) [2]; 20°C, challenging B7 1740 nM): 24.2 s; release amplitude of the displacement reaction (streptavidin (SAV) [2]; SAV-BcO complex challenged with unlabeled B7, 20°C): ~ 79% and 79 ± 1%; Quantum Yield QY (streptavidin (SAV) [3]; SAV complex (AB1)): 0.21 ± 0.01; Dynamic Quantum Yield Φ (streptavidin (SAV) [5]; SAV complex (AB1)): 0.83 ± 0.02; Fraction of Non-Statically Quenched Dye 1-S (streptavidin (SAV) [5]; SAV complex (AB1)): 0.25 ± 0.02; Natural Lifetime τ° (streptavidin (SAV) [5]; SAV complex (AB1)): 4.8 ± 0.1
